The source of these data is paper PMC11813896, “Bis(7)-harmine derivatives as potential multi-target anti-Alzheimer agents” (Frontiers in Chemistry, 2025).

Read-outs that look alike come from different tables or passages of the source. Some results are limits rather than exact numbers.

For one data set, the system named is AChE. The note with it: cited from earlier work.
A further data set deals with BACE1. Also noted: method as in Bolognesi et al., 2010. The following applies: ref Bolognesi et al., 2010; read-out: IC50 for inhibiting BACE1 (bis-tacrine); cited from earlier work.
The subject of another data set is Aβ1-42. The following applies: cited from earlier work.
Another data set relates to BuChE. The note with it: cited from earlier work.
For the next data set, the system named is Tau. Also noted: method as in Boländer et al., 2012. The note with it: ref Boländer et al., 2012; read-out: IC50 for inhibiting tau protein phosphorylation (bis-(arylvinyl)pyrazines); cited from earlier work.
Another data set relates to Aβ. Also noted: method as in Boländer et al., 2012. The following applies: ref Boländer et al., 2012; read-out: IC50 for inhibiting Aβ aggregation (bis-(arylvinyl)pyrazines); cited from earlier work.
For a further data set, the target named is Aβ 1−42 (Homo sapiens, UniProt P05067). Put plainly: Thioflavin T fluorescence assay, Aβ 1−42 self-aggregation. It is filed as biochemical. The following applies: Aβ 1-42 20 μM, 37°C, 24 h. As for the experimental part:
The thioflavin T (Th-T) fluorescence assay was used to assess the inhibition of Aβ 1−42 self-aggregation. […] Subsequently, the reaction was terminated to a final volume of 200 μL using Th-T (10 μM) solution.

For another data set, the target named is hAChE (Homo sapiens, UniProt P22303). The experiment in a line: biochemical. The note with it: for IC50: Mean ± SD from 3-5 assays, read-out: IC50 (nM) for cholinesterase hAChE. As for the experimental part: 50 μL of hAChE (0.02 unit/mL) or hBChE (0.02 unit/mL) were incubated with 10 μL of the compound in 96-well plates at 37°C for 6 min. Subsequently, 30 μL of a substrate solution containing acetylthiocholine iodide (ATCI) or butyrylthiocholine iodide (BTCI) at a concentration of 0.01 M was added, and the mixture was further incubated at 37°C for an additional duration of 12 min.
Chain of hAChE (P22303 32-614): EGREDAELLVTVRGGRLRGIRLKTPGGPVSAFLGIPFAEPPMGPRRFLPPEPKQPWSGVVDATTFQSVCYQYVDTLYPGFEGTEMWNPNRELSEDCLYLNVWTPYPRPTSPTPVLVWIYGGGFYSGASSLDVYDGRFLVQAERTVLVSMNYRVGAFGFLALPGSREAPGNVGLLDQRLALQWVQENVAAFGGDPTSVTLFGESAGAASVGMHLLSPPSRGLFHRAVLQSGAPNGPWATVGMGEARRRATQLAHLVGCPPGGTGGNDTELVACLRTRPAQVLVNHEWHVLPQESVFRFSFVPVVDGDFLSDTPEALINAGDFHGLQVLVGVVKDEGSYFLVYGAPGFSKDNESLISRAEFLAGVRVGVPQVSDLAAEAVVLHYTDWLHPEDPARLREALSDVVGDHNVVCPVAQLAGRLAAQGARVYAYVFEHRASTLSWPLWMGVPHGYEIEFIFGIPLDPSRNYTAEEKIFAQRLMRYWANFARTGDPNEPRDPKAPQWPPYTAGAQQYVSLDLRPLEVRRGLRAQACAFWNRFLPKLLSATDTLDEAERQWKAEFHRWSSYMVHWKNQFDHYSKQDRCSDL

A further data set addresses T1, recombinant hMAO-A (Homo sapiens, UniProt P21397).
T1 construct: purchased Sigma-Aldrich
T1 sequence (P21397 1-527): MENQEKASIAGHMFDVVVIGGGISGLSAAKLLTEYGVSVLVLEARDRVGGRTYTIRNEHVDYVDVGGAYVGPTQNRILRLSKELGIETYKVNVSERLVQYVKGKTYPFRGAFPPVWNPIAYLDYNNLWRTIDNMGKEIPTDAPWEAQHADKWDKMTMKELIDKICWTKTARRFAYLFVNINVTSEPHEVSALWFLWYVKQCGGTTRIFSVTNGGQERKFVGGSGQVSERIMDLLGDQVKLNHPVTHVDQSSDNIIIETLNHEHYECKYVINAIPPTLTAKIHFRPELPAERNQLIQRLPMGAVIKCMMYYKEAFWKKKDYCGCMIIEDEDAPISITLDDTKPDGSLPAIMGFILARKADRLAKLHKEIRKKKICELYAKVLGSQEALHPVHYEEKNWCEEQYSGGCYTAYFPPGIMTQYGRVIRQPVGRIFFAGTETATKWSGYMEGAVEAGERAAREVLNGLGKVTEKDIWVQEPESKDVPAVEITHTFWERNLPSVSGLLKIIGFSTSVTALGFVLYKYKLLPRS
The experiment in a line: biochemical. The note with it: for IC50: mean ± SD, read-out: IC50 (nM) for monoamine oxidases hMAO-A. As for the experimental part:
(§1) Briefly, the compounds under investigation and the reference inhibitor were preincubated with kynuramine at 37°C for 10 min in 96-well microplates. […] The enzymatic reactions were terminated by adding 400 μL of 2 N NaOH and 1,000 μL of water, followed by centrifugation at 16,000 g for 10 min. Subsequently, the concentrations of MAOs that produced 4-hydroxyquinoline were determined by measuring the fluorescence of the supernatant using a Varioskan Flash Multimode Reader ([…]) with excitation and emission wavelengths set at 310 nm and 400 nm, respectively. The IC50 values were calculated from dose-response curves and expressed as the mean ± standard deviation. These values were determined based on at least three independent experiments, each performed in triplicate.

In a further data set the target is T2, recombinant hMAO-B (Homo sapiens, UniProt P27338).
T2 construct: purchased Sigma-Aldrich
T2 sequence (P27338 1-520): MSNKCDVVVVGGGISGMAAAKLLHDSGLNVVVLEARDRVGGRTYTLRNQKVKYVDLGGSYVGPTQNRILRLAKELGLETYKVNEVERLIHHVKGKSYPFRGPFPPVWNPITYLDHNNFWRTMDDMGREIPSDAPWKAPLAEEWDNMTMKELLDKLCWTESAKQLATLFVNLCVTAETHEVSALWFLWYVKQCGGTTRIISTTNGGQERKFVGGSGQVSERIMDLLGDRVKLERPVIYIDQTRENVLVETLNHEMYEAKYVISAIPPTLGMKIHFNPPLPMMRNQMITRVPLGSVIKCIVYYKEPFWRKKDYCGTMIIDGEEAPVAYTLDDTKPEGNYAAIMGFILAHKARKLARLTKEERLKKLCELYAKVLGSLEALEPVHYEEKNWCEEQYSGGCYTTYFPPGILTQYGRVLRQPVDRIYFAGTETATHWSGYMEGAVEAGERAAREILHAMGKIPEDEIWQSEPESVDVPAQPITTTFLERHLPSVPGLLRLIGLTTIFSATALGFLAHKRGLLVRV
The experiment in a line: biochemical. The following applies: for IC50: mean ± SD, read-out: IC50 (nM) for monoamine oxidases hMAO-B. As for the experimental part: as §1

The subject of data set [1] is SHSY5Y cells. Put plainly: Protection of SHSY5Y cells against damage induced by Aβ 1−42, MTT. Format: cell-based, human. The note with it: for cellular recovery from Aβ 1-42-induced damage: 1 μM, co-exposed with Aβ 1-42 for 48 h. As for the experimental part:
The protective effect of the test compounds against Aβ 1-42-induced damage was assessed by monitoring MTT reduction in cells co-exposed to the compound and Aβ 1-42 for 48 h (Figure 3) ([…]). The 6d, 8c, and 8d were tested at concentrations of 1, 5, and 10 μM. […] Therefore, it is imperative to elucidate the underlying mechanisms responsible for these protective effects.
The SHSY5Y cells were seeded in 96-well plates at a density of 1 × 10^4 cells per well and incubated at 37°C for 24 h. Each compound was dissolved in DMSO, followed by direct dilution in the cell culture medium to achieve final concentrations of 1 μM, 5 μM, and 10 μM. Aβ 1−42 was added to each well at a concentration of 5 μM. The cells were then further incubated at 37°C for an additional period of 48 h. Cell viability was subsequently assessed using the MTT assay protocol ([…]).

Data set [2] has as its system SHSY5Y cells. The experiment in a line: In vitro cytotoxicity, MTT assay. It is filed as cell-based. As for the experimental part: Following this incubation period, the MTT solution was substituted with […] of DMSO and further incubated at room temperature for 10 minutes to dissolve formazan crystals formed by viable cells. Sorensen Buffer ([…]) was added subsequently followed by measuring absorbance at a wavelength of 570 nm to determine cell viability based on calculated values obtained from control samples without compound treatment. This experimental procedure was repeated independently three times.

The target in a further data set is hBuChE (Homo sapiens, UniProt P06276). The experiment in a line: Ellman's assay, hBuChE inhibition. Format: biochemical. The note with it: for inhibition at 1 µM: read-out: inhibition of hBuChE in primary screening. As for the experimental part: The Ellman’s assay was utilized to assess the inhibitory potential of novel bis(7)-harmine derivatives against hAChE and hBuChE. 50 μL of hAChE (0.02 unit/mL) or hBChE (0.02 unit/mL) were incubated with 10 μL of the compound in 96-well plates at 37°C for 6 min. Subsequently, 30 μL of a substrate solution containing acetylthiocholine iodide (ATCI) or butyrylthiocholine iodide (BTCI) at a concentration of 0.01 M was added, and the mixture was further incubated at 37°C for an additional duration of 12 min. Finally, the activity was measured by adding 150 μL of a solution containing 5,5′−dithiobis (2-nitrobenzoic acid) (DTNB) at a concentration of 0.01 M, followed by measuring absorbance at a wavelength of 415 nm using an Evolution 300 PC UV-Vis Spectrophotometer.
Chain of hBuChE (P06276 29-602): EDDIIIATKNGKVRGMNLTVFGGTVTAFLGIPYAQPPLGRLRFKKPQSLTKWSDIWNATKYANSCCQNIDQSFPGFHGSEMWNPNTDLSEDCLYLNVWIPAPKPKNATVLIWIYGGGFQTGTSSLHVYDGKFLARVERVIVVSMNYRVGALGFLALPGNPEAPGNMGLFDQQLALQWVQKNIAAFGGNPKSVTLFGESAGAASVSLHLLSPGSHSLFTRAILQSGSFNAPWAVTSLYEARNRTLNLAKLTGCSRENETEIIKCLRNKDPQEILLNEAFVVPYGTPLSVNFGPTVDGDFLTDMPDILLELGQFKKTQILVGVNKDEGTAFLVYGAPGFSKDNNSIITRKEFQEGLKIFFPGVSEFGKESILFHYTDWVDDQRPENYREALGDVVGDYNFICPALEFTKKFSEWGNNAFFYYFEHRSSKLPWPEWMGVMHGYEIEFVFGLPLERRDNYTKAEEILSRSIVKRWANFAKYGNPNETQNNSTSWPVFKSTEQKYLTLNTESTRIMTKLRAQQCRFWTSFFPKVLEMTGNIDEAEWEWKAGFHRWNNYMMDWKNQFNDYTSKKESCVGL

Another data set has as its system GSK-3β. Also noted: method as in Beato et al., 2021; Li et al., 2023. The note with it: read-out: GSK-3β (harmine, Figure 1); ref Beato et al., 2021; Li et al., 2023; cited from earlier work.
For another data set, the system named is MAO-A. The note with it: read-out: MAO-A (harmine, Figure 1); ref Beato et al., 2021; Li et al., 2023; cited from earlier work.

Chain of Aβ 1−42 (P05067 672-713 limits assumed): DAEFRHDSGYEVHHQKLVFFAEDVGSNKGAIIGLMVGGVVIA

In the case of `c1ccc2c(NCCCCCCCNc3c4c(nc5ccccc35)CCCC4)c3c(nc2c1)CCCC3` [Compound 2, Bis-tacrine], the IC50 in the data set with AChE (ref Bolognesi et al., 2010, read-out: IC50 for inhibiting AChE (bis-tacrine)) was […]; in the data set with BACE1 it was 7500 nM; with BuChE (ref Bolognesi et al., 2010, read-out: IC50 for inhibiting BuChE (bis-tacrine)), 5.66 nM. In addition, in the data set with Aβ1-42 (ref Bolognesi et al., 2010), the “Aβ1-42 (bis-tacrine, Figure 1)” value was 68.0%.
For `COc1ccc(/C=C/c2cnc(/C=C/c3ccc(OC)cc3)cn2)cc1` [Compound 3, Bis-(arylvinyl)-pyrazines], the results for the IC50 with Tau and in the data set on Aβ were 13 nM and 17 nM, respectively.
As for `COC(=O)c1cc2c3ccccc3n(CCCCN(C)CCN(C)CCCCn3c4ccccc4c4cc(C(=O)OC)nc(C)c43)c2c(C)n1` [Compound 5, Bis-(9)-β-carboline], the IC50 in the data set on AChE (ref Rook et al., 2010, Zhao et al., 2018, read-out: AChE (bis-(9)-β-carboline 5, Figure 1)) was 9600 nM; in the data set on BuChE (ref Rook et al., 2010, Zhao et al., 2018, read-out: BuChE (bis-(9)-β-carboline 5, Figure 1)), 1500 nM. In addition, the “Aβ1-42 (bis-(9)-β-carboline 5, Figure 1)” value in the data set on Aβ1-42 (ref Rook et al., 2010, Zhao et al., 2018) is recorded as 65.5%.
Consider `C=CCn1c2cc(OCCCCCCOc3ccc4c5ccnc(C)c5n(CC=C)c4c3)ccc2c2ccnc(C)c21` [Compound 6d, 1,6-bis ((9-allyl-1-methyl-9H-pyrido [3,4-b]indol-7-yl)oxy)hexane], for which the IC50 stood at 14.1 ± 0.5 µM against Aβ 1−42; 54.3 ± 3.6 nM at hAChE; 402 ± 23.7 nM on recombinant hMAO-A; 189 ± 13.6 nM at recombinant hMAO-B; 102 ± 4.6 nM on hBuChE (Mean ± SD from 3-5 assays, read-out: IC50 (nM) for cholinesterase hBuChE). Besides, the “S.I. Selectivity index IC50(hBuChE)/IC50(hAChE)” value on hAChE is 1.9. In addition, the “S.I. Selectivity index IC50(hMAO-B)/IC50(hMAO-A)” value at recombinant hMAO-A amounted to 0.5. In addition, the “cellular recovery from Aβ 1-42-induced damage” value in the data set on SHSY5Y cells [1] is given as “significant cellular recovery”. The “effect on SHSY5Y cell viability” value with SHSY5Y cells [2] (0.1–100 μM, 48 h incubation) is listed as “no significant impact on cell viability”.
`C=CCn1c2cc(OC(=O)CCCCN3CCN(Cc4ccc(C(F)(F)F)cc4)CC3)ccc2c2ccnc(C)c21` [Compound 7]: the IC50 was 48.4 nM in the data set on AChE (ref Du et al., 2023, Haider et al., 2018, read-out: AChE (compound 7 of Figure 1)); 12400 nM with Aβ1-42 (ref Du et al., 2023, Haider et al., 2018, read-out: Aβ1-42 (compound 7 of Figure 1)); 356 nM in the data set with BuChE (ref Du et al., 2023, Haider et al., 2018, read-out: BuChE (compound 7 of Figure 1)).
Take `C=CCn1c2cc(OCCCCCCCCOc3ccc4c5ccnc(C)c5n(CC=C)c4c3)ccc2c2ccnc(C)c21` [Compound 8d, 1,8-bis ((9-allyl-1-methyl-9H-pyrido [3,4-b]indol-7-yl)oxy)octane]: the IC50 amounted to 9.2 ± 0.4 µM against Aβ 1−42, 963 ± 69.5 nM on hAChE, 25.7 ± 1.9 nM on recombinant hMAO-A and 335 ± 13.8 nM on recombinant hMAO-B. Besides, the “S.I. Selectivity index IC50(hBuChE)/IC50(hAChE)” value on hAChE was greater than 1.0. For the same molecule, the “cellular recovery from Aβ 1-42-induced damage” value with SHSY5Y cells [1] is “significant cellular recovery”. Besides, the “cytotoxicity in SHSY5Y cells” value with SHSY5Y cells [2] (0.1 to 10 μM, 48 h) was “negligible cytotoxicity”. For the same molecule, the “SHSY5Y cell viability at increased concentration” value in the data set on SHSY5Y cells [2] (concentration increased to 10 μM (so in the source), 48 h) is on record as “evident decrease in SHSY5Y cell viability”. The inhibition at 1 µM on hBuChE (compound at 1 μM) is 39.8%.
In the case of `COc1ccc2c(c1)[nH]c1c(C)nccc12` [Harmine], the IC50 in the data set with GSK-3β was 31300 nM; in the data set with AChE (read-out: AChE (harmine, Figure 1), ref Beato et al., 2021, Li et al., 2023), 9050 nM; with MAO-A, 380 nM; in the data set on BuChE (read-out: BuChE (harmine, Figure 1), ref Beato et al., 2021, Li et al., 2023), 75100 nM. Also, the inhibition at 1 µM at hAChE (read-out: inhibition of hAChE in primary screening) came out at 30.9%; on recombinant hMAO-B (read-out: inhibition of hMAO-B in primary screening) it was 23.5%; at hBuChE, 23.5%.
Regarding “Aβ 1−42: amyloid-β peptide 1−42 used to induce damage in SHSY5Y cells [reference compound]”, the “reduction of viability of SHSY5Y neuroblastoma cells” value in the data set on SHSY5Y cells [1] (treatment with Aβ 1−42 5 μM, 48 h, MTT) is 48.7%.
